Results on 16 compounds are retold here after patent EP3985010A1, “SPIROCYCLIC INHIBITORS OF HEPATITIS B VIRUS” (priority 2020, dated 2022).

Where only a bound is given, the exact number is not on record here.

This assay has as its system HBV. Description: Anti-HBV activity in vitro: quantification of extracellular HBV DNA by direct qPCR in HepAD38 cells. In kind it is cell-based. The note with it: Hepatitis B virus, doxycycline-free medium, 96 hours at 37°C, 8-point dose-response curve, read-out: HBV inh EC50. The source says:
HepAD38 cell line (Ladner et al., Antimicrob Agents Chemother, 1997, 41, 1715-20) was used for HBV inhibition assays. HepAD38 is a subclone, derived from hepatoblastoma cell line HepG2 (ATCC® Number: HB-8065™), that expresses HBV genome under the transcriptional control of a tetracycline-responsive promoter in a TET-OFF system: addition of doxycycline, an antibiotic belonging to the class of tetracycline, suppresses HBV replication, while its removal switches on the process allowing HBV viral particles release in the cell supernatant. HepAD38 cell line is maintained in DMEM/F12, supplemented with 10% of fetal bovine serum, 1% of glutamine, 1% of penicillin/streptomycin, 0.4 mg/ml G418 and 0,3 ug/ml tetracycline. For the HBV inhibition assay, doxycycline-free medium is used in order to allow virion production.
HBV inhibition activity in vitro was performed in 96 multiwell plates. During the initial (primary) screening, compounds were first tested in triplicates at concentrations of 0.02 µM, 0.1µM, 0.5µM and 1µM. For selected compounds, an 8-point dose-response curve was obtained using 1:2 serial dilutions (starting from 0.01µM, 0.1µM, 0.4µM or 5 µM, depending on the degree of inhibition observed during the primary screening). From the dose-response curves, half maximal effective concentration (EC50) could be calculated (see also below).
In more detail, compounds - typically dissolved in DMSO stock solutions - were diluted to 2x the final desired concentration in 100 µl of the above medium (without doxycycline) and plated in three replicates in the 96-well plates.
Simultaneously, HepAD38 cells - extensively pre-washed in doxycycline-free medium in order to induce HBV production - were suspended at 2^∗10^4 cells in 100 µl of doxycycline-free medium and added to each well of the plate, to yield a final assay volume of 200 µl DMSO - used for stock solutions and compounds dilutions - which was always present in the assays at a final concentration of 0.5%.
Plates were then incubated 96 hours at 37°C and then subjected to cell viability assays and extracellular HBV quantification, in order to evaluate both the cytotoxic potential and the antiviral activity of compounds. Cytotoxicity was assessed by a commercial fluorescence assay that measures the metabolic activity of cells, directly related to cell viability (Cell Titer Blue, Promega). Anti-HBV activity was evaluated by quantification of extracellular HBV DNA with direct qPCR. In particular, supernatant was collected and centrifuged for cell debris clarification, viral DNA was extracted from virions by addition of lysis buffer (1 mM 1,4-dithiothreitol, 0.2% sodium dodecyl sulphate) and incubated at 95°C for 10 min. Samples were then diluted 1:40 and real time PCR amplification was performed with SYBR green assay (Power SYBR™ Green PCR Master Mix-Thermo Fisher Scientific) and specific HBV primer (HBV-DF:5'-[…]-3' (SEQ ID No. 1), HBV-DR:5'-[…]-3' (SEQ ID No. 2)).
Antiviral activity data for each compound are reported as EC50 value (see Table 1 legend). Excel and Graphpad Prism programs are typically used for data elaboration and EC50 calculation.
In the case of `C[C@@H](NC(=O)C(=O)N1CC[C@]2(COc3c(c(Cl)n(C)c3C(=O)Nc3ccc(F)c(Cl)c3)S(=O)(=O)N2)C1)C(F)(F)F` (stereo in doubt) [Example E33, (R)-8'-chloro-N-(3-chloro-4-fluorophenyl)-7'-methyl-1-(2-oxo-2-(((R)-1,1,1-trifluoropropan-2-yl)amino)acetyl)-2'H,4'H,7'H-spiro[pyrrolidine-3,3'-pyrrolo[3,4-b][1,4,5]oxathiazepine]-6'-carboxamide 1',1'-dioxide], the half-maximal effective concentration (EC50) (as a rule, the concentration giving half of the maximal effect) is less than 500 nM.

For `C[C@@H](NC(=O)C(=O)N1CCC2(COc3c(cn(C)c3C(=O)Nc3ccc(F)c(F)c3)S(=O)(=O)N2)C1)C(F)(F)F` (stereo partly drawn) [Example E1, N-(3,4-difluorophenyl)-7'-methyl-1-(2-oxo-2-(((R)-1,1,1-trifluoropropan-2-yl)amino)acetyl)-2'H,4'H,7'H-spiro[pyrrolidine-3,3'-pyrrolo[3,4-b][1,4,5]oxathiazepine]-6'-carboxamide 1',1'-dioxide], the EC50 is less than 500 nM. The figure for `C[C@@H](NC(=O)C(=O)N1CCC2(COc3c(c(Cl)n(C)c3C(=O)Nc3ccc(F)c(F)c3)S(=O)(=O)N2)C1)C(F)(F)F` (stereo partly drawn) [Example E3, 8'-chloro-N-(3,4-difluorophenyl)-7'-methyl-1-(2-oxo-2-(((R)-1,1,1-trifluoropropan-2-yl)amino)acetyl)-2'H,4'H,7'H-spiro[pyrrolidine-3,3'-pyrrolo[3,4-b][1,4,5]oxathiazepine]-6'-carboxamide 1',1'-dioxide] is less than 500 nM; for `C[C@@H](NC(=O)C(=O)N1CC[C@]2(COc3c(cn(C)c3C(=O)Nc3ccc(F)c(Cl)c3)S(=O)(=O)N2)C1)C(F)(F)F` [Example E4, (R)-N-(3-chloro-4-fluorophenyl)-7'-methyl-1-(2-oxo-2-(((R)-1,1,1-trifluoropropan-2-yl)amino)acetyl)-2'H,4'H,7'H-spiro[pyrrolidine-3,3'-pyrrolo[3,4-b][1,4,5]oxathiazepine]-6'-carboxamide 1',1'-dioxide] it is less than 500 nM; for `C[C@@H](NC(=O)C(=O)N1CC[C@@]2(COc3c(cn(C)c3C(=O)Nc3ccc(F)c(Cl)c3)S(=O)(=O)N2)C1)C(F)(F)F` [Example E5, (S)-N-(3-chloro-4-fluorophenyl)-7'-methyl-1-(2-oxo-2-(((R)-1,1,1-trifluoropropan-2-yl)amino)acetyl)-2'H,4'H,7'H-spiro[pyrrolidine-3,3'-pyrrolo[3,4-b][1,4,5]oxathiazepine]-6'-carboxamide 1',1'-dioxide] it is less than 500 nM. The figure for `C[C@@H](NC(=O)C(=O)N1CC[C@]2(COc3c(cn(C)c3C(=O)Nc3ccc(F)c(C(F)F)c3)S(=O)(=O)N2)C1)C(F)(F)F` [Example E6, (R)-N-(3-(difluoromethyl)-4-fluorophenyl)-7'-methyl-1-(2-oxo-2-(((R)-1,1,1-trifluoropropan-2-yl)amino)acetyl)-2'H,4'H,7'H-spiro[pyrrolidine-3,3'-pyrrolo[3,4-b][1,4,5]oxathiazepine]-6'-carboxamide 1',1'-dioxide] is less than 500 nM. The figure for `C[C@@H](NC(=O)C(=O)N1CCC2(CC1)COc1c(cn(C)c1C(=O)Nc1ccc(F)c(Cl)c1)S(=O)(=O)N2)C(F)(F)F` [Example E7, (R)-N-(3-chloro-4-fluorophenyl)-7'-methyl-1-(2-oxo-2-((1,1,1-trifluoropropan-2-yl)amino)acetyl)-2'H,4'H,7'H-spiro[piperidine-4,3'-pyrrolo[3,4-b][1,4,5]oxathiazepine]-6'-carboxamide 1',1'-dioxide] is less than 500 nM; for `C[C@@H](NC(=O)C(=O)N1CCC2(CC1)COc1c(cn(C)c1C(=O)Nc1ccc(F)c(C(F)F)c1)S(=O)(=O)N2)C(F)(F)F` [Example E8, (R)-N-(3-(difluoromethyl)-4-fluorophenyl)-7'-methyl-1-(2-oxo-2-((1,1,1-trifluoropropan-2-yl)amino)acetyl)-2'H,4'H,7'H-spiro[piperidine-4,3'-pyrrolo[3,4-b][1,4,5]oxathiazepine]-6'-carboxamide 1',1'-dioxide] it is less than 500 nM. `C[C@@H](NC(=O)C(=O)N1CC2(COc3c(cn(C)c3C(=O)Nc3ccc(F)c(Cl)c3)S(=O)(=O)N2)C1)C(F)(F)F` [Example E9, (R)-N-(3-chloro-4-fluorophenyl)-7'-methyl-1-(2-oxo-2-((1,1,1-trifluoropropan-2-yl)amino)acetyl)-2'H,4'H,7'H-spiro[azetidine-3,3'-pyrrolo[3,4-b][1,4,5]oxathiazepine]-6'-carboxamide 1',1'-dioxide]: the half-maximal effective concentration (EC50) was less than 500 nM.

Consider `C[C@@H](NC(=O)C(=O)N1CC2(COc3c(cn(C)c3C(=O)Nc3ccc(F)c(C(F)F)c3)S(=O)(=O)N2)C1)C(F)(F)F` [Example E10, (R)-N-(3-(difluoromethyl)-4-fluorophenyl)-7'-methyl-1-(2-oxo-2-((1,1,1-trifluoropropan-2-yl)amino)acetyl)-2'H,4'H,7'H-spiro[azetidine-3,3'-pyrrolo[3,4-b][1,4,5]oxathiazepine]-6'-carboxamide 1',1'-dioxide], for which the concentration giving a half-maximal response (EC50) was less than 500 nM. The figure for `C[C@@H](NC(=O)C(=O)N1CC[C@@]2(COc3c(cn(C)c3C(=O)Nc3ccc(F)c(C(F)F)c3)S(=O)(=O)N2)C1)C(F)(F)F` [Example E11, (S)-N-(3-(difluoromethyl)-4-fluorophenyl)-7'-methyl-1-(2-oxo-2-(((R)-1,1,1-trifluoropropan-2-yl)amino)acetyl)-2'H,4'H,7'H-spiro[pyrrolidine-3,3'-pyrrolo[3,4-b][1,4,5]oxathiazepine]-6'-carboxamide 1',1'-dioxide] is less than 500 nM.

Turning to `C[C@H](NC(=O)C(=O)N1CCC2(CC1)COc1c(cn(C)c1C(=O)Nc1ccc(F)c(Cl)c1)S(=O)(=O)N2)C(F)(F)F` [Example E12, (S)-N-(3-chloro-4-fluorophenyl)-7'-methyl-1-(2-oxo-2-((1,1,1-trifluoropropan-2-yl)amino)acetyl)-2'H,4'H,7'H-spiro[piperidine-4,3'-pyrrolo[3,4-b][1,4,5]oxathiazepine]-6'-carboxamide 1',1'-dioxide], the EC50 is less than 500 nM.

`Cn1cc2c(c1C(=O)Nc1ccc(F)c(Cl)c1)OCC1(CCN(C(=O)C(=O)NCC(F)(F)F)CC1)NS2(=O)=O` [Example E13, N-(3-chloro-4-fluorophenyl)-7'-methyl-1-(2-oxo-2-((2,2,2-trifluoroethyl)amino)acetyl)-2'H,4'H,7'H-spiro[piperidine-4,3'-pyrrolo[3,4-b][1,4,5]oxathiazepine]-6'-carboxamide 1',1'-dioxide]: the EC50 was less than 500 nM. Then `C[C@H](NC(=O)C(=O)N1CCC2(CC1)COc1c(cn(C)c1C(=O)Nc1ccc(F)c(C(F)F)c1)S(=O)(=O)N2)C(F)(F)F` [Example E14, (S)-N-(3-(difluoromethyl)-4-fluorophenyl)-7'-methyl-1-(2-oxo-2-((1,1,1-trifluoropropan-2-yl)amino)acetyl)-2'H,4'H,7'H-spiro[piperidine-4,3'-pyrrolo[3,4-b][1,4,5]oxathiazepine]-6'-carboxamide 1',1'-dioxide], with less than 500 nM. Turning to `Cn1cc2c(c1C(=O)Nc1ccc(F)c(C(F)F)c1)OCC1(CCN(C(=O)C(=O)NC(C)(C)C(F)(F)F)CC1)NS2(=O)=O` [Example E15, N-(3-(difluoromethyl)-4-fluorophenyl)-7'-methyl-1-(2-oxo-2-((1,1,1-trifluoro-2-methylpropan-2-yl)amino)acetyl)-2'H,4'H,7'H-spiro[piperidine-4,3'-pyrrolo[3,4-b][1,4,5]oxathiazepine]-6'-carboxamide 1',1'-dioxide], the concentration for a half-maximal effect (EC50) is less than 500 nM.

Consider `C[C@H](NC(=O)C(=O)N1CC2(COc3c(cn(C)c3C(=O)Nc3ccc(F)c(Cl)c3)S(=O)(=O)N2)C1)C(F)(F)F` [Example E16, (S)-N-(3-chloro-4-fluorophenyl)-7'-methyl-1-(2-oxo-2-((1,1,1-trifluoropropan-2-yl)amino)acetyl)-2'H,4'H,7'H-spiro[azetidine-3,3'-pyrrolo[3,4-b][1,4,5]oxathiazepine]-6'-carboxamide 1',1'-dioxide], for which the EC50 is less than 500 nM.
